The record followed here is article PMC7074381, “Investigating the Antiparasitic Potential of the Marine Sesquiterpene Avarone, Its Reduced Form Avarol, and the Novel Semisynthetic Thiazinoquinone Analogue Thiazoavarone” (Marine Drugs, 2020).

One assay deals with L. infantum amastigotes. Put plainly: intracellular amastigote susceptibility assay in THP-1 macrophages. The class given is cell-based. Particulars: for IC50: Leishmania infantum, intracellular amastigotes in THP-1 macrophages, 72 h, mean of two experiments in triplicate; for SIa: SIa = IC50 HMEC-1/IC50 L. infantum amastigotes. As to the method:
Cells were washed and infected with metacyclic L. infantum promastigotes at a macrophage/promastigote ratio of 1/10 for 24 h. Cell monolayers were then washed and incubated in the presence of test compounds for 72 h. Slides were fixed with methanol and stained with Giemsa. The percentage of infected macrophages in treated and non-treated cells was determined by light microscopy.

Assay [1] relates to L. tropica promastigotes (MHOM/IT/2012/ISS3130). Put plainly: promastigote susceptibility MTT assay, L. tropica. The class given is cell-based. The following applies: for IC50: Leishmania tropica, promastigote stage, 72 h, MTT, mean ± SD of three experiments; for SIp (L. tropica): SIp = IC50 HMEC-1/IC50 L. tropica promastigotes. On the procedure:
(§1) Promastigote stage of L. infantum strain MHOM/TN/80/IPT1 and L. tropica (MHOM/IT/2012/ISS3130) were cultured in Schneider’s Drosophila medium (Lonza) supplemented with 10% heat-inactivated fetal calf serum (HyClone) at 24 °C.
(§2) The complete medium used for antileishmanial activity assay was RPMI (EuroClone) supplemented with 10% heat-inactivated fetal calf serum (EuroClone), 20 mM Hepes, and 2 mM L-glutamine. To estimate the 50% inhibitory concentration (IC50), the MTT (3-[4.5-dimethylthiazol-2-yl]-2.5-diphenyltetrazolium bromide) method was used. Compounds were dissolved in DMSO and then diluted with medium to achieve the required concentrations. Drugs were placed in 96-well round-bottom microplates and seven serial dilutions made. Amphotericin B was used as the reference anti-leishmanial drug. Parasites were diluted in complete medium to 5 × 10^6 parasites/mL and 100 μL of the suspension was seeded into the plates, incubated at 24 °C for 72 h and then 20 µL of MTT solution (5 mg/mL) was added into each well for 3 h. The plates were then centrifuged, the supernatants discarded and the resulting pellets dissolved in 100 µL of lysing buffer consisting of 20% (w/v) of a solution of SDS (Sigma), 40% of N,N-dimethylformamide (Merck) in H2O. The absorbance was measured spectrophotometrically at a test wavelength of 550 nm and a reference wavelength of 650 nm. The results are expressed as IC50 which is the dose of compound necessary to inhibit parasite growth by 50%; each IC50 value is the mean ± standard deviation of separate experiments performed in duplicate.
On the technique in general: Tetrazolium assays rely on reduction of a dye to a coloured formazan, in cell work by metabolically active cells.

For assay [2], the system named is L. infantum promastigotes (strain MHOM/TN/80/IPT1). Put plainly: promastigote susceptibility MTT assay, L. infantum. The class given is cell-based. Particulars: for IC50: Leishmania infantum, promastigote stage, 72 h, MTT, mean ± SD of three experiments; for SIp (L. infantum): SIp = IC50 HMEC-1/IC50 L. infantum promastigotes. On the procedure:
as §1, §2

In assay [3] the test system is S. mansoni adult worm pairs. Put plainly: adult worm pair viability assay (phenotypic score). The following applies: 20 μM, 7 days. It is filed as cell-based. The text has this:
(§3) A Puerto Rican strain of S. mansoni was maintained by passage through albino Biomphalaria glabrata, as the intermediate host, and ICR (CD-1) outbred female mice as previously described. Female 4 to 7-week-old mice (Envigo, Udine, Italy) were infected with 200–400 double sex S. mansoni cercariae by the tail immersion technique. Adult pairs were harvested from mice 7–8 weeks after infection by reversed perfusion of the hepatic portal system and mesenteric veins. For the viability assays, 5 couples were incubated with the compounds in 3 mL DMEM complete tissue culture medium containing 10% FBS for up to 7 days and phenotypic score was assigned as previously described. For egg-treatment, 5 worm pairs were incubated for 48 h in 3 mL complete tissue culture medium; next the parasites were removed and vehicle (DMSO) or compounds 1–3 were added to each plate containing the eggs previously laid in vitro and observed for 72 h as previously reported. Briefly, images were recorded with a BX41 Olympus microscope and a bright field objective 10× served by a SPOT RT 220-3 Diagnostic Instrument Inc camera. Egg maturation/morphological score was assigned based on the Vogel and Prata’ staging system of egg maturation.

The subject of assay [4] is P. falciparum W2 (CQ-resistant) strain. Put plainly: antiplasmodial pLDH drug susceptibility assay, asexual parasites, W2 strain. It is filed as cell-based. The following applies: for IC50: Plasmodium falciparum, read-out: W2 IC50; for SI W2: SI = IC50 HMEC-1/IC50 P. falciparum W2. On the procedure:
(§4) P. falciparum cultures were carried out according to Trager and Jensen with slight modifications. The CQ-sensitive strain D10 and the CQ-resistant strain W2 were maintained at 5% hematocrit (human type A-positive red blood cells) in RPMI 1640 (EuroClone, Celbio) medium with the addition of 1% AlbuMax (Invitrogen, Milan, Italy), 0.01% hypoxanthine, 20 mM Hepes, and 2 mM glutamine at 37 °C in a standard gas mixture (1% O2, 5% CO2, and 94% N2). […] Drugs were placed in 96-well flat-bottomed microplates and serial dilutions made. Asynchronous cultures with parasitaemia of 1%–1.5% and 1% final hematocrit were aliquoted into the plates and incubated for 72 h at 37 °C. Parasite growth was determined spectrophotometrically (OD650) by measuring the activity of the parasite lactate dehydrogenase (pLDH), according to a modified version of the method of Makler in control and drug-treated cultures. The antiplasmodial activity is expressed as 50% inhibitory concentrations (IC50); each IC50 value is the mean ± standard deviation of at least three separate experiments performed in duplicate.

Assay [5] has as its system P. falciparum D10 (CQ-sensitive) strain. Put plainly: antiplasmodial pLDH drug susceptibility assay, asexual parasites, D10 strain. The class given is cell-based. Particulars: for IC50: Plasmodium falciparum, read-out: D10 IC50; for SI D10: SI = IC50 HMEC-1/IC50 P. falciparum D10. On the procedure: as §4
Assay [6] relates to HMEC-1 (human microvascular endothelial cells). Put plainly: cytotoxicity MTT assay on HMEC-1. It is filed as cell-based. Particulars: mean ± SD of three experiments in duplicate. On the procedure:
(§5) The long-term human microvascular endothelial cell line (HMEC-1) was maintained in MCDB 131 medium (Invitrogen, Milan, Italy) supplemented with 10% fetal calf serum (HyClone, Celbio, Milan, Italy), 10 ng/mL of epidermal growth factor,1 µg/ml of hydrocortisone, 2 mM glutamine and 20 mM Hepes buffer (EuroClone). For the cytotoxicity assays, HMEC-1 were plated at 10^5 cells/mL in 96-well flat bottom microplates. THP-1 cells were plated at 5 × 10^5 cells/mL in 96-well flat bottom microplates and treated with 0.1 μM PMA for 48 h to achieve differentiation into macrophages. Cells were then treated with serial dilutions of test compounds and cell proliferation evaluated using the MTT assay described for promastigotes. The results are expressed as IC50, which is the dose of compound necessary to inhibit cell growth by 50%.

Assay [7] concerns THP-1 (human acute monocytic leukemia cells). Put plainly: cytotoxicity MTT assay on THP-1 differentiated into macrophages. The class given is cell-based. The following applies: PMA-differentiated macrophages, mean of two experiments in duplicate. On the procedure:
as §5

Assay [8] relates to Pf gametocytes stage V 3D7elo1-pfs16-CBG99. Put plainly: gametocyte susceptibility assay (luciferase viability). It is filed as cell-based, P. falciparum. The following applies: Plasmodium falciparum, 72 h, mean ± SD of three experiments. As to the method: The transgenic P. falciparum 3D7 strain 3D7elo1-pfs16-CBG99 expressing the Pyrophorus plagiophthalamus CBG99 luciferase under a gametocyte specific promoter was used in all the experiments. Parasites were cultured and gametocytes obtained as previously described. Late-stage gametocytes were exposed to compounds at day 11 after N-acetylglucosamine (NAG) addition. Gametocytes stages were counted in Giemsa stained smears and the percentage of stage V gametocytes was higher than 80%. Compounds were prepared by serial dilution, in 96-well plate, in complete medium. Plates were incubated for 72 h at 37 °C under 1% O2, 5% CO2, 94% N2 atmosphere. Luciferase activity was taken as measure of gametocytes viability, as previously described. Briefly, drug-treated gametocyte samples at 2% haematocrit were transferred to 96-well black microplates and D-luciferin (1 mM in citrate buffer 0.1 M, pH 5.5) was added at a 1:1 volume ratio. Luminescence measurements were performed after 10 min with 500 ms integration time using a Sinergy 4 (Biotek) microplate reader. The IC50 was extrapolated from the non-linear regression analysis of the concentration–response curve.

In assay [9] the test system is S. mansoni in vitro laid eggs (IVLEs). Put plainly: in vitro laid eggs (IVLEs) maturation/morphology assay. The class given is cell-based. Particulars: 72 h.
Description: as §3

Where [10] appears, read: asexual parasites, CQ-resistant W2 strain, 72 h, pLDH, mean ± SD of three experiments in duplicate.
Setting [11] is: asexual parasites, CQ-sensitive D10 strain, 72 h, pLDH, mean ± SD of three experiments in duplicate.

Structures are written as SMILES. Where two headings read alike, the source gives them in different places.

Consider `C[C@@H]1[C@H](O)[C@@H](C)/C=C/C=C/C=C/C=C/C=C/C=C/C=C/[C@H](O[C@@H]2O[C@H](C)[C@@H](O)[C@H](N)[C@@H]2O)C[C@@H]2O[C@](O)(C[C@@H](O)C[C@@H](O)[C@H](O)CC[C@@H](O)C[C@@H](O)CC(=O)O[C@H]1C)C[C@H](O)[C@H]2C(=O)O` [Amphotericin B, reference compound], for which the IC50 in the assay on L. infantum amastigotes was 0.189 µM; in [1], 0.17 ± 0.04 µM; in assay [2], 0.2 ± 0.03 µM.

`CC1=CCC[C@H]2[C@](C)(Cc3cc(O)ccc3O)[C@@H](C)CC[C@]12C` [Avarol (3), avarol]: the “survival of adult worm pairs” value in assay [3] was determined as 20%. Moreover, the IC50 worked out at 3.19 µM with L. infantum amastigotes; 7.08 ± 1.91 µM in [1]; 1.1 ± 0.15 µM in [4] (setting [10]); 0.96 ± 0.24 µM in assay [5] (setting [11]); 36.9 ± 5.79 µM in assay [6]; 7.42 ± 0.27 µM in assay [2]. Moreover, the IC50 worked out at 31.8 µM in [7] and 9.3 ± 1.9 µM in assay [8]. The SIa with L. infantum amastigotes was 11.6; in the assay on L. infantum amastigotes (listed as avarol 3), “greater than 10”. For the same molecule, in assay [1], the “SIp (L. tropica)” value is 5.2. Moreover, in assay [4], the “SI W2” value worked out at 33.5. The “SI D10” value in [5] is on record as 38.4. Also, the “SIp (L. infantum)” value in assay [2] is reported as 5.0.

Take `CC1=CCC[C@H]2[C@](C)(CC3=CC(=O)C=CC3=O)[C@@H](C)CC[C@]12C` [Avarone (1), avarone]: the IC50 was 7.64 µM in the assay on L. infantum amastigotes; 20.3 ± 3.56 µM in [1]; 2.09 ± 0.52 µM in assay [4] (setting [10]); 2.74 ± 0.51 µM in assay [5] (setting [11]); 62.2 ± 1.98 µM in [6]; 28.2 ± 0.32 µM in assay [2]. Further, the IC50 in assay [7] is more than 100 µM; in assay [8] it was 15.5 ± 5.26 µM. For the same molecule, in the assay on L. infantum amastigotes, the SIa is reported as 8.1. The “SIp (L. tropica)” value in [1] stood at 3.1. The “SI W2” value in assay [4] stood at 29.8. The “SI D10” value in [5] is 22.7. In addition, the “SIp (L. infantum)” value in assay [2] is listed as 2.2.

Molecule `CC[C@@]1(O)C(=O)OCc2c1cc1n(c2=O)Cc2cc3ccccc3nc2-1` [Camptothecin, reference compound] returned an IC50 in assay [6] of 0.018 µM.

With `CCN(CC)CCCC(C)Nc1ccnc2cc(Cl)ccc12` (stereo not drawn) [Chloroquine (CQ), Chloroquine, reference compound], the half-inhibitory concentration (IC50) in assay [4] (W2, 72 h) was found to be 0.54 µM; in [5] (D10, 72 h), 0.04 µM.

In [8], `CN(C)c1ccc2nc3ccc(=[N+](C)C)cc-3sc2c1` [Methylene blue, reference compound] returned an IC50 of 0.155 ± 0.05 µM.

On to `CC1=CCC[C@H]2[C@](C)(CC3=CC(=O)C4=C(C3=O)S(=O)(=O)CCN4)[C@@H](C)CC[C@]12C` [Thiazoavarone (2), thiazoavarone], for which the “effect on adult stage viability” value in assay [3] is listed as “poorly effective”. Moreover, the IC50 in the assay on L. infantum amastigotes was 4.99 µM; in [1] it was 9.52 ± 0.32 µM; in assay [4] (setting [10]), 0.21 ± 0.03 µM; in [5] (setting [11]) it was 0.38 ± 0.15 µM; in assay [6], 3.31 ± 1.53 µM; in [2] it was 8.78 ± 0.26 µM. The IC50 in assay [7] stood at 7.41 µM; in assay [8] it was 15 ± 3.19 µM. For the same molecule, in the assay with L. infantum amastigotes, the SIa is 0.67. Further, the “SIp (L. tropica)” value in [1] was 0.35. Further, the “effect on egg maturation (IVLEs)” value is “impairing eggs maturation” in assay [9] (5 μM); “undeveloped and severely damaged eggs” in assay [9] (20 μM). Also, in assay [4], the “SI W2” value was found to be 15.8. Also, the “SI D10” value in assay [5] was determined as 8.7. For the same molecule, the “SIp (L. infantum)” value in assay [2] was 0.38.

By IC50 is commonly meant the concentration that gives 50% inhibition.
